Measurements as given in patent US5026728A, “Treatment of arthritis and inflammation using N,N-dimethylglycine” (Foodscience Corporation, priority 1989, dated 1991).
Several values for one entry are separate records, joined by “and”; a condition that tells them apart may be missing. Equal values may be shown once. Entries after “also recorded” stand apart in the source; their conditions may differ. Where a name gives a salt, the structure may show the parent alone. Read-outs that look alike come from different tables or passages of the source.

Assays:
[1] = tested on: chronic obstructive pulmonary disease (heaves); test: Treatment of chronic obstructive pulmonary disease in horses (Example 5); type: in vivo, horses (standardbred)
Procedure: Three standardbred horses, ages 3 to 7 years, were diagnosed as having chronic obstructive pulmonary disease, also known as equine asthma or the heaves. Clinical signs included frequent coughing, nasal discharge, increased respiratory rate and wheezing in the chest area. The horses were treated orally with 1.5 g of DMG hydrochloride twice daily for ten days.

[2] = animals under extreme stress; cited from earlier work
[3] = high-dose rats; cited from earlier work
interferon [4] = settings: cited from earlier work
Type II collagen = test: ELISA immunoassay of antibody to Type II collagen in sera of collagen-immunized rats; type: in vivo, Female Wistar outbred rats
Procedure: (§1) Female Wistar outbred rats (age 10-12 weeks) were obtained from Charles River Breeding Laboratories Inc., Wilmington, Mass.) housed in metal cages and fed standard rodent chow with water ad libitum.
(§2) Immunization was performed using the method outlined by Stuart et al. (Stuart et al., supra). Type II collagen was dissolved in 0.01N acetic acid at a concentration of 2 mg/ml stirring overnight at 4° C. An emulsion was made using incomplete Freund's adjuvant (Difco) and each collagen solution at a ratio of 6:4. Eighteen Wistar rats were given 0.1 ml of a cold emulsion of collagen II by intradermal injection of the left hind footpad and booster injections in the tail at one week and again on day 36.
(§3) Dimethylglycine mixed in distilled water was administered intraperitoneally to half of the rats in the study at a dosage rate of 100 mg/kg body weight per day, beginning on the day of collagen immunization. Control rats were injected with only distilled water. Rats were sacrificed at the time of the occurrence of arthritis and were bled by cardiac puncture. Rats surviving at day 30 were bled by the tail vein and were bled again at the end of the study (day 51).
Sera were obtained by cardiac puncture on the day arthritis developed or at the end of the study (day 51). An enzyme-linked immunoassay (ELISA) technique adapted from the methods described by Stuart et al. supra was used to measure antibody titres.
Flat bottom 96 well microtitre plates (Corning) were coated with collagen as follows: Collagen was dissolved in 0.4 ionic strength phosphate buffer, pH 7.6 by stirring overnight at 4° C. The collagen concentration was adjusted to 5 μg/ml determined by the Lowry method (Lowry, O. et al., J. Biol. Chem. 193, 265 [1951]). Each well received 100 μl of collagen solution and the plates were incubated at 4° C. overnight. The coating solution was removed by inverting the plate and sharply snapping the wrist to remove remaining droplets. To reduce nonspecific absorption a blocker of phosphate-buffered saline (PBS) (pH 7.4) containing 0.5% ovalbumin (Grade V), Sigma Chemical Co., St. Louis, Mo.) was added and incubated for 1 hr. The plates were washed with PBS-Tween (containing […]) three times and used immediately. The sera were diluted with PBS-Tween containing 0.5% ovalbumin and aliquots of 100 μl were added to the Type II collagen-coatad microtitre plates. The plates were incubated at 4° C. overnight and washed three times with PBS-Tween. One hundred μl of a 1:3000 dilution of rabbit anti-rat IgG peroxidase conjugate (Sigma) was added and incubated for 4 hr at room temperature. Excess conjugate was removed by washing three times with PBS-Tween and the amount of conjugate bound was determined by adding orthophenylenediamine (OPD) (Sigma Chemical Co.) as a substrate. The substrate was prepared by adding 40 mg of OPD to […] of 0.224M citric acid 0.05M dibasic sodium phosphate pH 5.0 and adding 400 μl of 3% hydrogen peroxide. After incubation with the substrate for 20 min the microtitre plates were read for absorbance at 490 nm using a Mini Reader II (Dynatech).

B cells [5] = settings: research on humans; cited from earlier work
lactic acid = settings: intravenous, severe surgical stress; cited from earlier work
lymphocytes [6] = settings: lymphocytes from DMG-fed animals; cited from earlier work
gouty arthritis = test: Treatment of gouty arthritis in humans (Example 4); type: in vivo, human; settings: 250 mg t.i.d.
Procedure: DMG was administered to two patients suffering from gouty arthritis, at a dosage of 250 mg t.i.d. over a three week period.

T cells and macrophages [7] = settings: research on humans; cited from earlier work
lymphocytes [8] = settings: sickle cell disease and diabetes patients; three lectins; cited from earlier work
[9] = greyhounds given DMG; cited from earlier work
[10] = tested on: hybridoma antibody producing cells; settings: in vitro cell cultures; cited from earlier work
T cells and macrophages [11] = settings: early research; cited from earlier work
[12] = human tests; cited from earlier work
rheumatoid arthritis = test: Treatment of rheumatoid arthritis in humans (Example 3); type: in vivo, human
Procedure: Three patients, diagnosed as having rheumatoid arthritis in one or both knees with symptoms of acute pain, inflammation, joint tenderness and morning stiffness, were treated orally with 500 mg of DMG taken four times daily. The test period lasted for six weeks, during which time no other antiinflammatory drugs were taken.

[13] = tested on: arthritis (Type II collagen-induced); test: Type II collagen-induced arthritis in rats, arthritic swelling of hindpaws (Example 1); type: in vivo, Female Wistar outbred rats; set-up: key to rats which showed arthritic swelling (mark): *: Indicates rats which showed arthritic swelling; settings: 100 mg/kg/day i.p.
Procedure: as §1, §2, §3
Animals in both groups were observed daily for the onset of arthritis. Swelling of the hindpaws was quantitated by measuring the thickness of the ankle from medial to lateral malleolus with a caliper (as done by Trentham et al. supra).

B cells [14] = settings: early research; cited from earlier work
[15] = cited from earlier work
interferon [16] = settings: cited from earlier work; remark: listed apart in the source
[17] = tested on: arthritis (Type II collagen-induced); test: Prevention of arthritis in collagen-injected rats (Example 2); type: in vivo
Procedure: Eighteen rats were divided into two groups. Nine animals were injected i.p. with DMG (100 mg/kg body weight) daily, starting on day 14 prior to administration of collagen II, and continuing for 30 days after collagen II injection or until severe arthritic lesions were observed, if earlier. The remaining nine rats were similarly injected i.p. with sterile water. In this experiment, as compared with Example 1, the source of the collagen II was changed from a commercial preparation (Chemicon Corp., Temecula, Calif.) to a fresh preparation prepared by the process according to Trentham et al., 1977, supra.

[18] = after 5 days, 1.5 g orally twice daily
[19] = antibody titre, individual rat, DMG 100 mg/kg/day i.p., absorbance at 490 nm
[20] = mean, DMG-treated rats, 100 mg/kg/day i.p.

CN(C)CC(=O)O [DMG-HCl]
breathing and nasal discharge [1, 18]: improved breathing and less nasal discharge
symptomatic relief [1, 18]: All three horses showed symptomatic relief after 5 days
clearing of air passages ([1]; end of 10 days, 1.5 g orally twice daily): the air passages of all three horses had cleared

CN(C)CC(=O)O [DMG, N,N-dimethylglycine]
lactic acid levels [2]: decrease lactic acid levels
oxygen utilization [2]: increase oxygen utilization
adaptation to hypoxia [3]: better adaptation to hypoxia
effect on inflammatory condition, heaves in horses ([1]; summary statement in description): demonstrated to reduce the inflammatory condition and to be an effective therapy for heaves in horses
interferon production (interferon [4]): effective in doubling interferon production; also recorded: will increase interferon production
antibody titres compared with control animals (Type II collagen; 100 mg/kg/day i.p., rats immunized with Type II collagen): developed higher antibody titres than control animals
ELISA Reading, serum from day 17 (Type II collagen; [19]): .78
ELISA Reading, serum from day 30 (Type II collagen; [19]): .47 and .00 and .28 and .32 and .33 and .20 and .17 and .48
ELISA Reading, serum from day 51 (Type II collagen; [19]): .60 and .88 and .18 and .35 and .90 and .56 and .64
Mean ELISA Reading, serum from day 17 (Type II collagen; [20]): .78
Mean ELISA Reading, serum from day 30 (Type II collagen; [20]): .28
Mean ELISA Reading, serum from day 51 (Type II collagen; [20]): .54
antibody responses of B cells (B cells [5]): much higher antibody responses
lactic acid production (lactic acid): decreased lactic acid production
lymphocyte activation / proliferation (lymphocytes [6]): can stimulate the cellular immune system by lymphatic proliferation
time after which benefits were noted (gouty arthritis): 7 to 10 days
time to maximal benefits (gouty arthritis): maximal after two weeks
pain, redness and inflammation (gouty arthritis; three weeks): Less pain, redness and inflammation were noted
activity of T cells and macrophages (T cells and macrophages [7]): enhances the activity of T cells and macrophages
blast transformation activity of lymphocytes (lymphocytes [8]): approximately doubled
racing performance [9]: improvement in racing performance
recovery after races [9]: better recovery after races with less fatigue or muscle stiffness
production of antibodies [10]: increases the production of antibodies
activity of T cells and macrophages (cellular immunity branch) (T cells and macrophages [11]): potentiates the activity of T cells and macrophages
exhaustion time [12]: increase in exhaustion time
immune response (antibody production and lymphocyte generation) [12]: enhancement of the body's immune response
fatigue and night pain (rheumatoid arthritis; 500 mg orally four times daily): All three patients reported less fatigue and less night pain
improvement in inflammation, pain and morning stiffness (rheumatoid arthritis; after 21 days, 500 mg orally four times daily): two patients reported significant improvement in reduction of inflammation, pain and morning stiffness; also recorded: the third patient reported a lesser improvement
additional improvement (rheumatoid arthritis; last three weeks of therapy (six weeks)): Additional improvement was noted in all three patients
arthritic swellings of the hindpaws compared with non-DMG-treated group ([13]; beginning on the day of collagen immunization): did not develop to the same extent the arthritic swellings of the hindpaws
rats which showed arthritic swelling (mark) ([13]; individual rat): *
antibody responses of B cells (humoral branch) (B cells [14]): much higher antibody responses
blood lactic acid level following training ([15]; DMG in the diet): lower blood lactic acid level following training
appetite, attitude and recovery from racing and training ([15]; trainers' observation, versus controls): more aggressive, to have better appetites and attitudes and to recover faster from racing and training than the controls
interferon level (interferon [16]; primary response, DMG-fed, none detected in immunized controls): high levels of interferon was present
interferon level (interferon [16]; secondary response): Interferon was not present
animals developing characteristic inflammation and swelling, of nine ([17]; 100 mg/kg i.p. daily from day 14 before collagen II, all control animals developed arthritis): only two developed the characteristic inflammation and swelling to any extent
development of inflammation and swelling associated with Type II collagen-induced arthritis ([17]; 100 mg/kg/day, starting on day 14 prior to injection): either does not develop to the same extent, or does not develop at all
